Results from publication PMC6839174, “Targeting the Formyl Peptide Receptor type 1 to prevent the adhesion of ovarian cancer cells onto mesothelium and subsequent invasion” (Journal of Experimental & Clinical Cancer Research : CR, 2019).
Non-standard residues stand in square brackets, D forms with d. Aib = CC(C)(N)C(=O)O

Assays:
[1] = tested on: SKOV-3 cells; test: Adhesion of SKOV-3 cells onto extracellular matrix proteins (24-well plates, cell counting); assay type: cell-based, Human
Experimental: (§1) Adhesion assays were performed using 24 multi-well plates coated with 1% BSA, 5 μg mL vitronectin (Vn), 5 μg mL fibronectin (Fn), 5 μg mL laminin (Lm) or 15 μg mL collagen (Coll) diluted in serum-free medium. Sub-confluent cells were harvested by a mild trypsinization, incubated with 10% FBS / DMEM for 1 h at 37 °C, 5% CO2, acid treated with a buffer containing 50 mM glycin-HC1, 0.1 M NaCl, pH 3 for 4 min at 22 °C, to remove receptor-bound ligands, and counted. Viable cells (2 × 10^5 cells per well) were plated in serum-free medium, in the absence or presence of 2 μg/mL R3 mAb recognizing the DI uPAR domain, 2 μg/mL399 anti-uPAR (American Diagnostica), 2 μg/mL anti-uPAR84-95 (PRIMM), 2 μg/mL anti-α-tubulin (Cell Signaling) Abs or 10 nM RI-3, and allowed to adhere for 2 h at 37 °C, 5% CO2. […] At the end of the assay, adherent cells were removed with 0.05% trypsin, and counted. The number of adherent cells was expressed as a percentage of the basal cell adhesion (CTRL). The experiments were performed at least three times in triplicate.

[2] = tested on: A2780 cells; test: Adhesion of A2780 cells onto extracellular matrix proteins; assay type: cell-based, Human; settings: A2780 cells lacking uPAR and FPR1, 10 nM RI-3; BSA, Vn, Fn, Lm or Coll; three independent experiments
Experimental: as §1, with “The experiments were performed at least three times in triplicate.” left out
Supplementary file 13046_2019_1465_MOESM1_ESM.zip: Additional file 1: Figure S1. […] The number of adherent cells was expressed as a percentage of CTRL. […] Then, A2780 cells suspended in growth medium plus/minus 10 nM RI-3 were seeded onto the mesothelial cell monolayer and invasion of mesothelium by A2780 cells was monitored in real-time as changes in Cell Index due to breaking of the monolayer integrity. […]

[3] = tested on: SKOV-3 cells; test: GFP-SKOV-3 cell adhesion onto mesothelium (HPMC monolayer); assay type: cell-based, Human; settings: means of three independent experiments in triplicate
Experimental: (§2) HPMCs (1 × 10^5 cells/well) suspended in growth medium, were seeded in 24-well plates and allowed to adhere for about 20 h until they form a confluent monolayer, prior to seeding GFP-tagged EOC cells suspended in growth medium plus diluents or 10 nM RI-3. At the indicated times, plates were accurately washed with PBS and cell-associated fluorescence was assessed by a fluorescence plate reader a fluorescence plate reader (Victor 3, Perkin Elmer), using 485 nm excitation and 535 nm emission filters. The experiments were performed three times in triplicate.

[4] = tested on: SKOV-3 cells; test: HPMC invasion by SKOV-3 cells monitored in real time; assay type: cell-based, Human; settings: 10 nM RI-3; xCELLigence cell index, slopes 20–24 h; quadruplicate representative of 3 replicates
Experimental: (§3) HPMCs (5 × 10^3 cells/well) suspended in growth medium, were seeded in E-16-well plates and allow to adhere for 18–20 h until they form a confluent monolayer, prior to seeding EOC cells (2 × 10^4 cells/well) in growth medium plus/minus 10 nM RI-3. When HPMCs are challenged with invading cells, there is a drop in electrical resistance within 2–4 h which is monitored in real-time as the Cell Index changes due to the rupture of mesothelium. The experiments were performed three times in quadruplicate.

[5] = tested on: SKOV-3 and primary EOC cells; test: Cell adhesion to vitronectin, SKOV-3 and primary EOC cells (summary statement); assay type: cell-based, human; settings: pre-exposure
Experimental: as §1
This assay was performed using E-16-well plates and the xCELLigence Real Time Cell Analysis technology. […] The impedance value of each well was automatically monitored in real-time for at least 2 h and expressed as a cell index value. […]

[6] = tested on: EOC cells; test: EOC cell adhesion to and crossing of mesothelial cell monolayers (summary statement); assay type: cell-based, human; settings: EOC cells exposed to RI-3 or desensitized with an excess of SRSRY
Experimental: as §2, §3

[7] = tested on: FPR1; settings: FPR1 overexpressing rat basophilic leukaemia RBL-2H3/ETFR cells; stated also as conclusion for primary EOC cells; ref [38]; cited from earlier work
Description: In order to obtain primary cultures of EOC cells, representative fragments of tissue samples were fragmented and cells recovered, as described in the Methods. By enzymatic digestion of a HGSC tissue sample (patient #5), a primary cell culture expressing high levels of both uPAR and FPR1 on cell surface as shown by IHC, was obtained (Figs. 4 and 5a). Subsequent sub-cloning of isolated cell clusters (Fig. 5b) followed by five passages allowed us to obtain an adherent, homogeneous, CD326 positive cell population. These EOC cells express a considerable amount of both uPAR and FPR1 as shown by West ...

Ac-[dY][dR][Aib][dR]-NH2 [RI-3, retro-inverso peptide, uPAR/FPR1 antagonist]
basal cell adhesion and adhesion to Coll-, Fn- and Lm-coated plates ([1]; SKOV-3, 10 nM RI-3, 2 h, BSA (basal), collagen, fibronectin, laminin, three independent experiments): neither affected basal cell adhesion, nor cell adhesion to Coll- Fn- and Lm-coated plates
extent of cell adhesion onto Vn with RI-3 ([1]; SKOV-3, 10 nM RI-3, Fig. 2d (2 h, cell counting) and Fig. 2e (real time 2 h)): dramatically reduced the extent of cell adhesion onto Vn
A2780 cell adhesion [2]: ineffective
reduction of cell associated fluorescence (SKOV-3 adhesion to mesothelium) ([3]; 10 nM RI-3, after 5 min): 57%
reduction of cell associated fluorescence (SKOV-3 adhesion to mesothelium) ([3]; 10 nM RI-3, after 10 min): 47%
reduction of cell associated fluorescence (SKOV-3 adhesion to mesothelium) ([3]; 10 nM RI-3, after 20 min): 58%
reduction of cell associated fluorescence (SKOV-3 adhesion to mesothelium) ([3]; 10 nM RI-3, after 40 min): 54%
capability of SKOV-3 cells to disrupt mesothelial cell monolayer [4]: abrogated the capability of SKOV-3 cells to disrupt mesothelial cell monolayer
extent of cell adhesion to vitronectin (abstract) [5]: decreases to basal level
ability to cross mesothelial cell monolayers (abstract) [6]: losing the ability to cross them
FPR1 binding and blockade of internalization and function [7]: binds to FPR1 blocking its internalization and function
